Experimental data taken from ChEMBL document CHEMBL1201862, “PubChem BioAssay data set” (2004).
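Compound exposure: 48 hours, 5 concentrations, 96-well plates. GI50 marks 50% less growth.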 Calls of active or inactive are those of the source. Cut-off read from the data, not from the text of the source: active = GI50 up to about 1.1 µM and inactive = higher.

How the values were obtained:
Experiment in all cases: NCI anticancer screen, dose series, 48 h
HOP-62 = system: HOP-62
SK-MEL-28 = system: SK-MEL-28
T47D = system: T47D
HCT-15 = system: HCT-15
NCI-H460 = system: NCI-H460
SNB-75 = system: SNB-75
MDA-MB-435 = system: MDA-MB-435
KM12 = system: KM12
UO-31 = system: UO-31
SN12C = system: SN12C
NCI-H23 = system: NCI-H23
SF-268 = system: SF-268
TK-10 = system: TK-10
A549 = system: A549
SNB-19 = system: SNB-19
XF498 = system: XF498
HL-60 = system: HL-60
ACHN = system: ACHN
OVCAR-4 = system: OVCAR-4
LXFL 529 = system: LXFL 529
DLD-1 = system: DLD-1
OVCAR-3 = system: OVCAR-3
786-0 = system: 786-0
DU-145 = system: DU-145
NCI-H226 = system: NCI-H226
U-251 = system: U-251
MCF7 = system: MCF7
DMS-114 = system: DMS-114
MDA-MB-231 = system: MDA-MB-231
HT-29 = system: HT-29
NCI-H522 = system: NCI-H522
HOP-18 = system: HOP-18
HOP-92 = system: HOP-92
K562 = system: K562
IGROV-1 = system: IGROV-1
UACC-62 = system: UACC-62
SF-295 = system: SF-295
HCT-116 = system: HCT-116
BT-549 = system: BT-549
M19-MEL = system: M19-MEL
RPMI-8226 = system: RPMI-8226
LOX IMVI = system: LOX IMVI
UACC-257 = system: UACC-257
SK-OV-3 = system: SK-OV-3
SK-MEL-2 = system: SK-MEL-2
SF-539 = system: SF-539
SNB-78 = system: SNB-78
M14 = system: M14
Hs-578T = system: Hs-578T
CAKI-1 = system: CAKI-1
SW-620 = system: SW-620
A498 = system: A498
Malme-3M = system: Malme-3M
OVCAR-8 = system: OVCAR-8
MOLT-4 = system: MOLT-4
HCC 2998 = system: HCC 2998
CCRF-CEM = system: CCRF-CEM
PC-3 = system: PC-3
MDA-N = system: MDA-N
DMS-273 = system: DMS-273
SK-MEL-5 = system: SK-MEL-5
SR = system: SR
EKVX = system: EKVX
KM-20L2 = system: KM-20L2
OVCAR-5 = system: OVCAR-5
RXF 393 = system: RXF 393
COLO 205 = system: COLO 205

COc1cc2c(cc1OC)[C@H]1CN3CCC[C@H]3C=C1c1ccc(OC)c(O)c1-2
GI50 (HOP-62): < 0.0001 µM (active)
GI50 (SK-MEL-28): 0.0006 µM (active)
GI50 (T47D): 0.00337 µM (active)
GI50 (HCT-15): 0.000549 µM
GI50 (NCI-H460): 0.000558 µM (active)
GI50 (SNB-75): 0.000566 µM (active)
GI50 (MDA-MB-435): 0.00264 µM (active)
GI50 (KM12): 0.000519 µM (active)
GI50 (UO-31): 0.000959 µM (active)
GI50 (SN12C): 0.000531 µM (active)
GI50 (NCI-H23): 0.000553 µM (active)
GI50 (SF-268): 0.000819 µM (active)
GI50 (TK-10): 0.000998 µM (active)
GI50 (A549): 0.000598 µM (active)
GI50 (SNB-19): < 0.0001 µM (active)
GI50 (XF498): < 0.0001 µM (active)
GI50 (HL-60): 0.000487 µM (active)
GI50 (ACHN): 0.000566 µM (active)
GI50 (OVCAR-4): 0.00031 µM (active)
GI50 (LXFL 529): < 0.0001 µM (active)
GI50 (DLD-1): < 0.0001 µM (active)
GI50 (OVCAR-3): < 0.0001 µM (active)
GI50 (786-0): 0.000728 µM (active)
GI50 (DU-145): 0.00342 µM (active)
GI50 (NCI-H226): 0.000736 µM (active)
GI50 (U-251): 0.000605 µM (active)
GI50 (MCF7): 0.00404 µM (active)
GI50 (DMS-114): < 0.0001 µM (active)
GI50 (MDA-MB-231): 0.00378 µM (active)
GI50 (HT-29): 0.000656 µM (active)
GI50 (NCI-H522): 0.000487 µM (active)
GI50 (HOP-18): < 0.0001 µM (active)
GI50 (HOP-92): < 0.0001 µM (active)
GI50 (K562): 0.000512 µM (active)
GI50 (IGROV-1): 0.000661 µM (active)
GI50 (UACC-62): < 0.0001 µM (active)
GI50 (SF-295): < 0.0001 µM (active)
GI50 (HCT-116): 0.000452 µM (active)
GI50 (BT-549): 0.0195 µM (active)
GI50 (M19-MEL): < 0.0001 µM (active)
GI50 (RPMI-8226): 0.000577 µM (active)
GI50 (LOX IMVI): 0.000329 µM (active)
GI50 (UACC-257): 0.000681 µM (active)
GI50 (SK-OV-3): < 0.0001 µM (active)
GI50 (SK-MEL-2): 0.000505 µM (active)
GI50 (SF-539): 0.000711 µM (active)
GI50 (SNB-78): < 0.0001 µM (active)
GI50 (M14): 0.00048 µM (active)
GI50 (Hs-578T): 0.00192 µM (active)
GI50 (CAKI-1): < 0.0001 µM (active)
GI50 (SW-620): 0.000499 µM (active)
GI50 (A498): < 0.0001 µM (active)
GI50 (Malme-3M): 0.000608 µM (active)
GI50 (OVCAR-8): 0.000557 µM (active)
GI50 (MOLT-4): 0.000486 µM (active)
GI50 (HCC 2998): 0.0029 µM (active)
GI50 (CCRF-CEM): 0.000422 µM (active)
GI50 (PC-3): 0.00359 µM (active)
GI50 (MDA-N): 0.00346 µM (active)
GI50 (DMS-273): < 0.0001 µM (active)
GI50 (SK-MEL-5): 0.000539 µM (active)
GI50 (SR): 0.00059 µM (active)
GI50 (EKVX): 0.000883 µM (active)
GI50 (KM-20L2): < 0.0001 µM (active)
GI50 (OVCAR-5): 0.000653 µM (active)
GI50 (RXF 393): 0.00667 µM (active)
GI50 (COLO 205): 0.0006 µM (active)

CC1(C)C(=O)OC(n2cc(F)c(=O)[nH]c2=O)C1=O (stereo not given)
GI50 (HOP-62): 65.9 µM (inactive)
GI50 (SK-MEL-28): > 100 µM (inactive)
GI50 (HCT-15): > 100 µM
GI50 (NCI-H460): 55.1 µM (inactive)
GI50 (SNB-75): > 100 µM (inactive)
GI50 (KM12): > 100 µM (inactive)
GI50 (UO-31): > 100 µM (inactive)
GI50 (SN12C): > 100 µM (inactive)
GI50 (NCI-H23): > 100 µM (inactive)
GI50 (SF-268): > 100 µM (inactive)
GI50 (TK-10): > 100 µM (inactive)
GI50 (A549): 66.5 µM (inactive)
GI50 (SNB-19): > 100 µM (inactive)
GI50 (XF498): > 100 µM (inactive)
GI50 (HL-60): > 100 µM (inactive)
GI50 (ACHN): > 100 µM (inactive)
GI50 (OVCAR-4): > 100 µM (inactive)
GI50 (LXFL 529): > 100 µM (inactive)
GI50 (DLD-1): > 100 µM (inactive)
GI50 (OVCAR-3): > 100 µM (inactive)
GI50 (786-0): > 100 µM (inactive)
GI50 (NCI-H226): > 100 µM (inactive)
GI50 (U-251): > 100 µM (inactive)
GI50 (DMS-114): > 100 µM (inactive)
GI50 (HT-29): > 100 µM (inactive)
GI50 (NCI-H522): > 100 µM (inactive)
GI50 (HOP-18): > 100 µM (inactive)
GI50 (HOP-92): 26.5 µM (inactive)
GI50 (K562): > 100 µM (inactive)
GI50 (UACC-62): > 100 µM (inactive)
GI50 (SF-295): > 100 µM (inactive)
GI50 (HCT-116): 89.5 µM (inactive)
GI50 (M19-MEL): > 100 µM (inactive)
GI50 (RPMI-8226): > 100 µM (inactive)
GI50 (LOX IMVI): > 100 µM (inactive)
GI50 (UACC-257): > 100 µM (inactive)
GI50 (SK-OV-3): > 100 µM (inactive)
GI50 (SK-MEL-2): > 100 µM (inactive)
GI50 (SF-539): 43.9 µM (inactive)
GI50 (SNB-78): > 100 µM (inactive)
GI50 (M14): > 100 µM (inactive)
GI50 (SW-620): > 100 µM (inactive)
GI50 (A498): > 100 µM (inactive)
GI50 (Malme-3M): > 100 µM (inactive)
GI50 (OVCAR-8): > 100 µM (inactive)
GI50 (MOLT-4): > 100 µM (inactive)
GI50 (HCC 2998): 46.6 µM (inactive)
GI50 (CCRF-CEM): > 100 µM (inactive)
GI50 (EKVX): 39.1 µM (inactive)
GI50 (KM-20L2): > 100 µM (inactive)
GI50 (OVCAR-5): > 100 µM (inactive)
GI50 (RXF 393): > 100 µM (inactive)
GI50 (COLO 205): > 100 µM (inactive)

NC1=NC(c2ccccc2)CC(c2cc(Cl)ccc2O)=N1 (stereo not given)
GI50 (HOP-62): 16.2 µM (inactive)
GI50 (SK-MEL-28): 18.7 µM (inactive)
GI50 (NCI-H460): 15.5 µM (inactive)
GI50 (SNB-75): 17.7 µM (inactive)
GI50 (KM12): 13.7 µM (inactive)
GI50 (UO-31): 15.2 µM (inactive)
GI50 (SN12C): 13.6 µM (inactive)
GI50 (NCI-H23): 15.5 µM (inactive)
GI50 (SF-268): 16 µM (inactive)
GI50 (TK-10): 25.1 µM (inactive)
GI50 (A549): 14.3 µM (inactive)
GI50 (SNB-19): 16.7 µM (inactive)
GI50 (XF498): 19.6 µM (inactive)
GI50 (HL-60): 16.1 µM (inactive)
GI50 (ACHN): 15.3 µM (inactive)
GI50 (OVCAR-4): 17.9 µM (inactive)
GI50 (LXFL 529): 15 µM (inactive)
GI50 (DLD-1): 13.2 µM (inactive)
GI50 (OVCAR-3): 17.5 µM (inactive)
GI50 (786-0): 16.1 µM (inactive)
GI50 (NCI-H226): 21.2 µM (inactive)
GI50 (U-251): 16.3 µM (inactive)
GI50 (DMS-114): 12.7 µM (inactive)
GI50 (HT-29): 17.5 µM (inactive)
GI50 (NCI-H522): 15.5 µM (inactive)
GI50 (HOP-18): 17.7 µM (inactive)
GI50 (HOP-92): 19.1 µM (inactive)
GI50 (K562): 10.1 µM (inactive)
GI50 (IGROV-1): 19.3 µM (inactive)
GI50 (UACC-62): 15.8 µM (inactive)
GI50 (SF-295): 17.3 µM (inactive)
GI50 (HCT-116): 14 µM (inactive)
GI50 (M19-MEL): 14.5 µM (inactive)
GI50 (RPMI-8226): 15.2 µM (inactive)
GI50 (LOX IMVI): 15.5 µM (inactive)
GI50 (UACC-257): 19.9 µM (inactive)
GI50 (SK-OV-3): 17.9 µM (inactive)
GI50 (SF-539): 15 µM (inactive)
GI50 (SNB-78): 19.5 µM (inactive)
GI50 (M14): 16.9 µM (inactive)
GI50 (CAKI-1): 14.9 µM (inactive)
GI50 (SW-620): 14.1 µM (inactive)
GI50 (A498): 20.1 µM (inactive)
GI50 (Malme-3M): 21.8 µM (inactive)
GI50 (OVCAR-8): 16.2 µM (inactive)
GI50 (MOLT-4): 14.2 µM (inactive)
GI50 (HCC 2998): 15.9 µM (inactive)
GI50 (CCRF-CEM): 22.1 µM (inactive)
GI50 (DMS-273): 13 µM (inactive)
GI50 (SR): 15.8 µM (inactive)
GI50 (EKVX): 15.3 µM (inactive)
GI50 (KM-20L2): 17.4 µM (inactive)
GI50 (OVCAR-5): 19.9 µM (inactive)
GI50 (RXF 393): 17.3 µM (inactive)
GI50 (COLO 205): 19.5 µM (inactive)
